Data reported in patent publication US4818753A, “Synthesis and method of use for 2, 4 diaminoquinazoline” (SRI International, priority 1987, dated 1989).
In brackets after ≈: the same amount, converted by molar mass. Entries after “also recorded” stand apart in the source; their conditions may differ. Read-outs that look alike come from different tables or passages of the source.

Key:
Type in all cases: cell-based
Candida albicans (10231) = experiment: Broth dilution assay, F1
Description: (§1) Both broth dilution and agar dilution assays were used to assess the antifungal activity of the compounds of the invention. The cultures were maintained in Sabouraud dextrose broth (SDB) and diluted with […]. 2.5 l of SDB was prepared and distributed into sterile vessels as follows: 49 ml into 1 vessel, 27 ml into 3 vessels, 45 ml into 2 vessels.
(§2) Five mg/ml concentration of each compound was prepared using DMSO as the solvent; warming and sonication were necessary to dissolve each compound completely. The compounds were then diluted in SDB according to the following protocol:
(§3) 5. 1 ug/ml--5 ml (3)+45 ml SDB
(§4) The compound at each concentration in SDB was then dispensed into 6 tubes each containing 4 ml […]. Controls (without any compound) were also prepared to insure that the solvent itself was not fungicidal or fungistatic.
(§5) Cultures were grown in SDB for 24 h at 30° C. C. albicans and C. neoformans were diluted 1:10 in SDB before inoculation. Inoculation volume for yeasts was 2 drops of diluted cells per tube. The fungal cultures were homogenized before inoculation. The same volume was added, but without dilution. All tubes were incubated at room temperature on a rotating wheel. After 16 h of incubation at room temperature, the fungistatic assay was set up on agar plates. […] Yeasts were inoculated onto SDA (the corresponding agar) plates and fungi onto mycosel agar plates. These plates were then incubated at room temperature.

[1] = tested on: Cryptococcus neoformans (13690); experiment: Broth dilution assay, F3
Description: as §1, §2, §3, §4, §5

[2] = tested on: Epidermophyton floccosum (15693); experiment: Broth dilution assay, F4
Description: as §1, §2, §3, §4, §5

[3] = tested on: Microsporum gypseum (14683); experiment: Broth dilution assay, F12; conditions: Nannizzia gypsea
Description: as §1, §2, §3, §4, §5

[4] = tested on: Ca. guilliermondii MY1019; experiment: Agar dilution assay; conditions: Meyerozyma guilliermondii, MY1019, 48 h, read-out: Minimum inhibitory concentration
From the text: (§6) For the agar dilution assay, the test panel consisted of 18 yeastlike and 3 Filamentus fungii. Four media were used. These were yeast nitrogen base dextrose (0.5% agar) (YNBDA); pH 5.5; YNBDA with pH adjusted to pH 7.5; and micrological agar (MA), pH 7.0; and Sabouraud dextrose agar, pH 5.7. The media was manufactured by Difco (Detroit, MI) and prepared according to the manufacturer's instructions.
(§7) The test compounds were solubilized in 10% aqueous DMSO; the control drug, Nystatin, was solublized in 10% aqueous DMF. The drugs were serially diluted twofold in sterile water to yield concentrations of 1.28 mg/ml to […]. One ml of diluted drug was added to 9 ml of cooled (50° C.) molten agar in plastic petri plates to yield final drug concentrations in the agar ranging from 128 to 0.063 ug/ml. Appropriate solvent and media control plates were prepared as well, and all plates stored in the dark at 4° C. overnight. The yeast cultures, maintained in yeast maltose (YM; Difco), were transferred to fresh YM medium and incubating overnight at 37° C. with shaking at 250 rpm. After incubation each culture was diluted in sterile saline to yield concentrations of 3×10^5 to 3×10^6 cfu/ml. Isolates of aspergillis and penicillium were made on potato dextrose agar slants, and spore suspensions were made following vigorous shaking with sterile glass beads. The spore preparation were used as inocula for these fungi.
(§8) Each prepared place was inoculated with the 21-member panel using a Denleigh multipoint inoculator (Sussex, England). The inoculator delivers approximately 1 ul to the agar surface, resulting in inoculation of from 3×10^2 to 3×10^3 cfu. The plates were incubated at 28° C. for 48 h, and the minimum inhibitory concentrations (MIC) of each drug were recorded as the lower concentration of the drug permitting no growth or growth of less than 3 cfu/spot.

Ca. parapsilosis MY1009 = experiment: Agar dilution assay; conditions: MY1009, 48 h, read-out: Minimum inhibitory concentration
From the text: as §6, §7, §8

Ca. rugosa MY1022 = experiment: Agar dilution assay; conditions: Diutina rugosa, MY1022, 48 h, read-out: Minimum inhibitory concentration
From the text: as §6, §7, §8

[5] = tested on: Ca. tropicalis MY1012 (Nystatin resistant isolate); experiment: Agar dilution assay; conditions: Candida tropicalis, 48 h
From the text: as §6, §7, §8

[6] = tested on: Penicillium italicum MF2819; experiment: Agar dilution assay; conditions: MF2819, 48 h
From the text: as §6, §7, §8

[7] = tested on: 18 yeastlike and 3 Filamentus fungii; experiment: Agar dilution assay, whole panel; conditions: for MIC: 48 h
From the text: as §6, §7, §8

Candida = experiment: Growth of Candida cultures with compound and/or SMX (FIG. 1)

Question: What does the source list for `CCCCCCCCc1ccc2nc(N)nc(N)c2c1C` [2,4-Diamino-5-methyl-6-n-octylquinazoline]?
Answer: MFC (Candida albicans (10231); Table 2, F1, Sabouraud Dextrose Broth pH 5.5, read-out: C Fungicidal): 100 µg/mL (≈ 349 µM); MIC (Candida albicans (10231); Table 2, F1, Sabouraud Dextrose Broth pH 5.5, read-out: S Fungistatic): 10 µg/mL (≈ 34.9 µM); MFC ([1]; Table 2, F3, Sabouraud Dextrose Broth pH 5.5, read-out: C Fungicidal): 3 µg/mL (≈ 10.5 µM); MIC ([1]; Table 2, F3, Sabouraud Dextrose Broth pH 5.5, read-out: S Fungistatic): 3 µg/mL (≈ 10.5 µM); MFC ([2]; Table 2, F4, Sabouraud Dextrose Broth pH 5.5, read-out: C Fungicidal): 30 µg/mL (≈ 105 µM); MIC ([2]; Table 2, F4, Sabouraud Dextrose Broth pH 5.5, read-out: S Fungistatic): 1 µg/mL (≈ 3.49 µM); MFC ([3]; Table 2, Sabouraud Dextrose Broth pH 5.5, read-out: C Fungicidal): 100 µg/mL (≈ 349 µM); MIC ([3]; Table 2, Sabouraud Dextrose Broth pH 5.5, read-out: S Fungistatic): 30 µg/mL (≈ 105 µM); MIC ([4]; MA pH 7.0): 16 µg/mL (≈ 55.9 µM); MIC ([4]; SDA pH 5.7): > 128 µg/mL; MIC ([4]; YNBDA pH 5.5): > 128 µg/mL; MIC ([4]; YNBDA pH 7.5): 16 µg/mL (≈ 55.9 µM); MIC (Ca. parapsilosis MY1009; MA pH 7.0): 8 µg/mL (≈ 27.9 µM); MIC (Ca. parapsilosis MY1009; SDA pH 5.7): > 128 µg/mL; MIC (Ca. parapsilosis MY1009; YNBDA pH 5.5): > 128 µg/mL; MIC (Ca. parapsilosis MY1009; YNBDA pH 7.5): 16 µg/mL (≈ 55.9 µM); MIC (Ca. rugosa MY1022; pH 5.5, YNBDA pH 5.5): > 128 µg/mL; MIC (Ca. rugosa MY1022; pH 7, MA pH 7.0): 64 µg/mL (≈ 223 µM); MIC (Ca. rugosa MY1022; pH 7.5, YNBDA pH 7.5): 32 µg/mL (≈ 112 µM); MIC ([5]; pH 5.5, read-out: Minimum inhibitory concentration): 4 µg/mL (≈ 14 µM); MIC ([5]; pH 5.7, read-out: Minimum inhibitory concentration): 2 µg/mL (≈ 6.98 µM); MIC ([5]; pH 7, read-out: Minimum inhibitory concentration): 2 µg/mL (≈ 6.98 µM); MIC ([5]; pH 7.5, read-out: Minimum inhibitory concentration): 4 µg/mL (≈ 14 µM); MIC ([6]; MA pH 7.0, read-out: Minimum inhibitory concentration): 4 µg/mL (≈ 14 µM); MIC ([6]; SDA pH 5.7, read-out: Minimum inhibitory concentration): 64 µg/mL (≈ 223 µM); MIC ([6]; YNBDA pH 5.5, read-out: Minimum inhibitory concentration): 128 µg/mL (≈ 447 µM); MIC ([6]; YNBDA pH 7.5, read-out: Minimum inhibitory concentration): 8 µg/mL (≈ 27.9 µM); MIC ([7]; pH 5.7): > 128 µg/mL; MIC ([7]; Candida tropicalis, pH 5.5): ≥ 128 µg/mL; antifungal activity in words ([7]; Table 3 panel): inhibitory for a large variety of yeast and Filamentus fungii; also recorded: extremely toxic with regard to a wide variety of fungi; cfu/ml after 9 h (Candida; 10 ug compound + 100 ug SMX, after 9 h): 10^2 cfu/ml; cfu/ml after 36 h (Candida; 10 ug compound + 100 ug SMX): zero; cfu/ml after 36 h (Candida; 10 ug of compound alone): 10^4 cfu/ml; cfus after 9 h (Candida; 100 ug of each compound (with SMX), after 9 h): no cfus; synergistic activity with sulfa drug (Candida; with sulfa drug (SMX in FIG. 1)): synergistic activity
